{"source": "patent US20260077055A1", "about": "“COMPOSITIONS OF POLYPLEXES AND SAPONINS” (SAPREME TECHNOLOGIES B.V., priority 2022, published 2026)", "tested_on": "HEK293FT cells", "test": "pEGFP-N3 polyplex transfection of HEK293FT cells, live cell imaging", "format": "cell-based", "experimental": "Spectrophotometry: Concentrations were determined using either a Thermo Nanodrop 2000 spectrometer or Perkin Elmer Lambda 365 Spectrophotometer. DLS measurements: DLS measurements were performed on a Malvern Nano ZS (Malvern Instruments, U.K.), operating at 633 nm with a 173° scattering angle, at 25 or 37° C. DLS mean diameters were obtained from the intensity particle size distribution provided by Malvern Zetasizer Software. DLS histograms were obtained from the intensity particle size distributions. Zeta-potential: The zeta-potential values of the polyplexes were obtained by laser doppler anemometry (LDA), measuring the mean electrophoretic mobility (Malvern Zetasizer Nano ZS, Malvern Instruments, U.K.). Measurements were performed in 10 mM HEPES pH 7.1, 150 mM NaCl. TEM measurements: TEM measurements were performed on a JEOL JEM-1011 operated at 100 kV electron microscope, equipped with a camera S5 MegaView G2. A drop of a solution of polyplexes (0.1 mg/mL) was settled on a PELCO® TEM carbon type-B film copper grid and allowed to dry at room temperature for 1 h. Infrared Spectroscopy: FT-IR spectra were recorded on a Bruker Vertex 70v, equipped with a RockSolid interferometer, after preparing the samples (1-2 mg) as KBr pellets. Spectra were processed using OPUS 7.8 software (Bruker). NMR Spectroscopy: 1H NMR spectra were recorded on a 11.7 T Bruker DRX-500 spectrometer. Chemical shifts are reported in ppm (o units) downfield from the HOD residual solvent peak (CD3OD). Experiments were recorded acquiring 64-512 scans, with a pre-scan delay (d1) of 12 s, and an acquisition time (aq) of 4 s at 300 K. 13C NMR spectrum was recorder on a 9.39 T Varian Innova 400 spectrometer. MestReNova 14.2 software (Mestrelab Research) was used for spectra processing. Cell culture conditions and treatments: HEK293FT, A431, A2058, Neuro2A, Hepa1-6 and MDA-MB 468 were maintained in 10% FBS-supplemented DMEM medium (PAN-Biotech GmbH, or Lonza Group, Basel, Switzerland)+Pen/Strep at 37° C. with 5% CO2. […]", "data": [{"smiles": "CC(=O)OC1C(C)OC(OC2C(C)OC(OC(=O)[C@]34CCC(C)(C)CC3C3=CCC5[C@@]6(C)CC[C@H](OC7OC(C(=O)O)C(O)C(OC8OCC(O)C(O)C8O)C7OC7OC(CO)C(O)C(O)C7O)[C@@](C)(/C=N/NC(=O)CCCCCN7C(=O)C=CC7=O)C6CC[C@@]5(C)[C@]3(C)C[C@H]4O)C(OC3OC(C)C(OC4OCC(O)C(OC5OC(CO)C(O)C(O)C5O)C4O)C(O)C3O)C2O)C(O)C1OC1OCC(O)C(O)C1O", "note": "(stereo partly drawn) [SO1861-EMCH]", "values": [{"measurement": "pEGFP-N3 transfection (GFP expression)", "setting": "40 pM or 120 pM pEGFP-N3, N/P 8, SO1861-EMCH = 4000 nM co-administered with PAMAM G5-(PEG N3)3.5 polyplexes", "result": "nearly all cells were transfected"}, {"measurement": "toxicity (cell confluency)", "setting": "40 pM or 120 pM pEGFP-N3 polyplexes, N/P 8, SO1861-EMCH = 4000 nM co-administered with PAMAM G5-(PEG N3)3.5 polyplexes", "result": "strong toxicity was observed"}, {"measurement": "toxicity of SO1861-EMCH alone", "setting": "4000 nM, without polyplex (data not shown)", "result": "not toxic"}]}]}
